# What was measured:
# Malassezia furfur = test: Anti-fungal efficacy, germ count reduction; assay type: cell-based; conditions: 0.12%
# Protocol: Assay of the anti-fungal efficacy of zinc pyrithione, piroctone, climbazole and sclareolide on Malassezia furfur was assayed.
# Malassezia restricta = test: Broth microdilution (MIC) assay, resazurin fluorescence; assay type: cell-based
# Protocol: Sclareolide antifungal potential on Malassezia restricta was evaluated by the broth microdilution method.
# Method: Malassezia restricta was routinely grown on modified Leeman-Notman (mLN) agar. The broth microdilution assay was performed following EUCAST guidelines (www.eucast.org) with slight modifications. Between five and ten colonies were suspended in a modified RPMI 1640 media supplemented with resazurin at a D.O (Density Optical) of 0.1. In a 96 well plate, serial dilutions of sclareolide (0.00023% to 0.12%), zinc pyrithione (0.015%-0.0023%) and Ketoconazol (0.5-0.015 μg/ml) were prepared in modified RPMI 1640. An equal volume of Malassezia restricta inoculum was added to the test samples at different concentrations. Following 48 h-60 h of incubation at 34° C., resazurin fluorescence was analyzed at 530 nm and 590 nm.
# Results are presented as relative fluorescence intensity compared to DMSO control. the MIC is defined as the lowest drug concentration that inhibited growth.
# [1] = test system: Escherichia coli ATCC 25922; conditions: cited from earlier work
# [2] = test system: Staphylococcus aureus ATCC 25923; conditions: cited from earlier work
# [3] = Solubility in surfactant solution (12% Sodium laureth sulfate/2% Cocamidopropyl betaine); assay type: physicochemical; conditions: 12% Sodium laureth sulfate (SLES)/2% Cocamidopropyl betaine (CAPB), 1 hour stirring
# keratin 10 = test: Keratin 10 expression in ex vivo scalp skin biopsies (immunohistochemistry); assay type: cell-based, human; conditions: 0.12%
# Protocol: (§1) Method: CYP27B1 was assessed by immunohistochemistry with a specific antibody. Biopsies of healthy human scalp skin in culture were treated with sclareolide diluted at 0.12% in placebo (ceraphyl 368 (Ashland) applied once a day for 48 hours topically (20 μl/biopsy). Control biopsies received only ceraphyl 368. The immunostaining was performed using paraffin sections incubated in the presence of anti-CYP27B1 antibody (rabbit monoclonal, Abcam). After an hour and a half of incubation followed by rinses, the sections were incubated in the presence of the secondary anti-rabbit antibody coupled with a fluorophore (Alexa Fluor® 488, Invitrogen). The sections were then examined under a fluorescence microscope (Nikon Eclipse Ni-E microscope). CYP27B1 expression was then observed (using NiS-AR Nikon acquisition software) and quantified by image analysis (Volocity® image analysis software, Improvision).
# Method: Keratin 10 was assessed by immunohistochemistry. The protocol was the same as in example 4 with the use of anti-keratin 10 antibody (rabbit monoclonal, Abcam).
# total lipids = test: Total lipid content in ex vivo scalp skin biopsies (Nile Red staining); assay type: cell-based, human; conditions: 0.12%
# Protocol: as §1
# Method: total lipids were assessed by fluorescent staining by using the fluorescent dye Nile Red. The treatment of the biopsies was the same than in example 4. […] The sections were then examined under a fluorescence microscope (Nikon Eclipse Ni-E microscope). Red fluorescence was then observed (using NiS-AR Nikon acquisition software) and quantified by image analysis (Volocity® image analysis software, Improvision).
# [4] = test system: Pseudomonas aeruginosa ATCC 27950; conditions: cited from earlier work
# CYP27B1 = CYP27B1 expression in ex vivo scalp skin biopsies (immunohistochemistry); assay type: cell-based, human
# Protocol: as §1
# [5] = test system: Enterococcus faecalis ATCC 29212; conditions: cited from earlier work
# [6] = 48 h-60 h incubation at 34° C., vs DMSO control
molecule,measurement,setting,value
"CC(C)(C)C(=O)C(Oc1ccc(Cl)cc1)n1ccnc1 (stereo not shown) [Climbazole, climbazole]",Reduction % (6 h),Malassezia furfur,38.5%
same,Reduction % (24 h),Malassezia furfur,33.80%
zinc pyrithione [ZPT],Reduction % (6 h),Malassezia furfur,47.4%
same,Reduction % (24 h),Malassezia furfur,93.10%
same,inhibition of Malassezia restricta,Malassezia restricta; tested in parallel at the same concentrations,high inhibition
"Cc1cc(CC(C)CC(C)(C)C)n(O)c(=O)c1 (stereo not shown) [OCT, piroctone]",Reduction % (6 h),Malassezia furfur,15.4%
same,Reduction % (24 h),Malassezia furfur,35.30%
"CC1(C)CCC[C@]2(C)[C@H]3CC(=O)O[C@]3(C)CC[C@@H]12 [sclareolide, Sclareolide]",antibacterial activity,[1],good antibacterial activity
same,antibacterial activity,[2],good antibacterial activity
same,Reduction % (6 h),Malassezia furfur,38.5%
same,Reduction % (24 h),Malassezia furfur,32.40%
same,dissolution in surfactant solution,[3],could not be dissolved
same,increase in keratin 10 labelling intensity,"keratin 10; 48-hour treatment, compared to placebo, highly significant",+20%
same,Keratin 10 expression (% placebo),"keratin 10; 48 hours, placebo = 100%",120%
same,increase in lipid labelling intensity,"total lipids; 48-hour treatment, compared to placebo, significant",+46%
same,Total lipid content (% placebo),"total lipids; 48 hours, placebo = 100%",146%
same,antibacterial activity,[4],good antibacterial activity
same,CYP27B1 protein expression (% placebo),"CYP27B1; 0.12% in ceraphyl 368, topical once a day, 48 hours, placebo = 100%",138%
same,increase in CYP27B1 labelling intensity,"CYP27B1; 0.12%, 48-hour treatment, compared to placebo, very significant",+38%
same,antibacterial activity,[5],good antibacterial activity
same,concentration at which growth of Malassezia restricta was completely inhibited (MIC),Malassezia restricta; [6],0.12%
same,concentration from which growth of Malassezia restricta was significantly inhibited,Malassezia restricta; [6],0.001875%
